Patent publication US5206233A, “Substituted thiazepines as central nervous system agents” (Warner-Lambert Company, priority 1991, dated 1993)
pIC50: −log10 of the molar value. Where a name gives a salt, the structure may show the parent alone.

Legend:
sigma receptor [1] = conditions: known antipsychotic agents; literature; cited from earlier work
sigma receptor [2] = assay: 3-PPP binding (inhibition of (+)-[3H]-3-PPP, a sigma ligand, binding); conditions: inhibition of (+)-[3H]-3-PPP binding, method of Largent et al
[3] = tested on: locomotor activity in mice; assay: inhibition of locomotor activity in mice; format: in vivo; conditions: Mus musculus, IP
Method: (§1) The compounds of Formula I are valuable sigma ligands. […] Additionally, the compounds of Formula I were tested for their ability to inhibit locomotor activity in mice according to the assay described by McLean, J. R., et al, Pharmacology, Biochemistry and Behavior 8:97-99 (1978); for their ability to inhibit contractions of electrically stimulated guinea pig ileum according to the method of Campbell, B. G., et al, Journal of Neuroscience 9 3380-3384 (1989) and Bass, P., et al, Journal of Pharmacology and Experimental Therapeutics 186:183-198 (1973). These tests further support the antipsychotic activity of the compounds of Formula I. The above test methods are incorporated herein by reference. The data in the table show the activity of representative compounds of Formula I.

guinea pig ileum = assay: inhibition of contraction of electrically stimulated guinea pig ileum; conditions: Cavia porcellus, read-out: Inhibition of Contraction of Electrical Stimulation Guinea Pig Ileum IC50
Method: as §1

| Compound | pIC50 (sigma receptor [2]) | pIC50 (guinea pig ileum) | interaction with the sigma receptor (in words) (sigma receptor [1]) | ED50 [3] [mg/kg] |
| --- | --- | --- | --- | --- |
| O=C(CCCN1CCC(O)(c2ccc(Cl)cc2)CC1)c1ccc(F)cc1 [haloperidol] | – | – | interact with the sigma receptor | – |
| CN1CCSC(c2ccc(Cl)cc2)CC1 (stereo not drawn) [Example 6, Hexahydro-7-(4-chlorophenyl)-4-methyl-1,4-thiazepine, hydrochloride] | 6.92 | – | – | – |
| CCN1CCC[C@H]1CNC(=O)c1c(OC)ccc(Br)c1OC [remoxapride] | – | – | interact with the sigma receptor | – |
| COc1ccc(C2CCN(C(C)C)CCS2)cc1 (stereo not drawn) [Example 4, Hexahydro-7-(4-methoxyphenyl)-4-isopropyl-1,4-thiazepine, hydrochloride] | 8.79 | – | – | – |
| COc1ccc(C2CCN(C)CCS2)cc1 (stereo not drawn) [Example 2, Hexahydro-7-(4-methoxyphenyl)-4-methyl-1,4-thiazepine, hydrochloride] | 7.78 | – | – | – |
| COc1ccc(C2CCN(CCCCc3ccncc3)CCS2)cc1 (stereo not drawn) [Example 12, Hexahydro-7-(4-methoxyphenyl)-4-[4-(4-pyridinyl)butyl]-1,4-thiazepine] | 8.88 | 5.14 | – | 13.9 |
| O=C1CC2(CCCC2)CC(=O)N1CCCCN1CCN(c2nsc3ccccc23)CC1 [tiospirone] | – | – | interact with the sigma receptor | – |
| CCCN1CCSC(c2ccc(Cl)cc2)CC1 (stereo not drawn) [Example 10, Hexahydro-7-(4-chlorophenyl)-4-propyl-1,4-thiazepine] | 7.67 | – | – | – |
| C[C@@H]1CN(CCCn2c3ccccc3c3ccccc32)C[C@H](C)N1 [rimcazole] | – | – | interact with the sigma receptor | – |
| CCN1CCSC(c2ccc(OC)cc2)CC1 (stereo not drawn) [Example 3, Hexahydro-7-(4-methoxyphenyl)-4-ethyl-1,4-thiazepine] | 8.21 | – | – | – |

The next lines start with results.

| pIC50 (sigma receptor [2]) | pIC50 (guinea pig ileum) | Compound | interaction with the sigma receptor (in words) (sigma receptor [1]) | ED50 [3] [mg/kg] |
| --- | --- | --- | --- | --- |
| 8.60 | 5.40 | c1ccc(C2CCN(CCCCc3cccnc3)CCS2)cc1 (stereo not drawn) [Example 15, Hexahydro-7-(phenyl)-4-[4-(3-pyridinyl)butyl]-1,4-thiazepine] | – | 17.9 |
| 8.19 | 4.88 | Cl.c1ccc(C2CCN(CCCCc3ccncc3)CCS2)cc1 (stereo not drawn) [Example 14, Hexahydro-7-(phenyl)-4-[4-(4-pyridinyl)butyl]-1,4-thiazepine, hydrochloride] | – | 13.1 |
| 8.04 | – | COc1ccc(C2CCN(CCCC(=O)c3cccnc3)CCS2)cc1 (stereo not drawn) [Example 13, 1-(3-Pyridinyl)-7-(4-methoxyphenyl)-4-(tetrahydro-1,4-thiazepin-4(2H)-yl)-1-butanone, dihydrochloride] | – | – |
| 8.58 | – | Clc1ccc(C2CCN(CCCCc3ccncc3)CCS2)cc1 (stereo not drawn) [Example 16, Hexahydro-7-(4-chlorophenyl)-4-[4-(4-pyridinyl)butyl]-1,4-thiazepine] | – | 19 |
